In the assay the target is T1, human Y4 receptor (Homo sapiens, UniProt P50391).
T1 construct: expressed in transfected cells
The assay can be described thus: NPY4 cAMP HTRF Agonist Assay (inhibitory cAMP assay, Gi activation by Y4 agonism). Format: cell-based. As to the method: NPY4 cAMP HTRF Agonist Assay
The functionality of the compound at Y4 receptor was analyzed using a inhibitory cAMP assay (CISBIO, HTRF cAMP kit #62AM4PEC) to measure the Gi activation by Y4 agonism.
The human Y4 stable CHO clonal cells were maintained in culture medium (F-12 containing 10% Fetal Bovine Serum, […] GENETICIN®, […] Zeocin). Before the experiment, 5 μL of 1 uM Forskolin (Sigma, # F6886) and 100 uM IBMX (Sigma, # I5879) in PBS buffer were added into 384-well plates (PE, Proxi-plate) that were pre-dotted with 100 nL compounds. The cells were removed from the flasks by Cellstripper, counted and adjusted to 1.0×10^6 cells/mL in PBS buffer, and added 5 μL/well (5000 cells/well) into the above 384-well plates. The cells were then covered and incubated for 30 minutes at room temperature. After incubation, 5 μL/well of D2-conjugate in HTRF lysis buffer was first added, followed by adding 5 μL/well of anti-cAMP Cryptate in HTRF lysis buffer. The plates were incubated for another 1 hour at room temperature and read on the EnVision Multilabel Plate Reader.
Compounds described herein were tested in the above assay.
For orientation: In TR-FRET formats the signal depends on donor and acceptor labels being close together.

Setting [1] is: human Y4 receptor, cAMP, read-out: hY4 CAMP EC50.
Where [2] appears, read: TABLE 4, R2 is Pyridinyl-CN, read-out: hY4 CAMP EC50.
Where [3] appears, read: human Y4 stable CHO clonal cells, forskolin + IBMX, read-out: NPY4 cAMP HTRF Agonist Assay EC50.
The mark [4] stands for this setting: second TABLE 1, R2 is Phenyl-CF3, read-out: hY4 CAMP EC50.
[5] abbreviates: TABLE 2, R2 is Phenyl-CN, read-out: hY4 CAMP EC50.
Setting [6] is: TABLE 7, R2 is Pyridinyl-oxadiazole-CH3, read-out: hY4 CAMP EC50.

Like-named read-outs stand apart in the source and are kept apart here.

In patent publication US8815909B2, “Diaminocyclohexane compounds and uses thereof” (Bristol-Myers Squibb Company, priority 2011, dated 2014) one finds EC50 data, which are given here for 41 compounds.

The EC50 is the concentration at which the effect is half-maximal.

T1 sequence (P50391 whole entry): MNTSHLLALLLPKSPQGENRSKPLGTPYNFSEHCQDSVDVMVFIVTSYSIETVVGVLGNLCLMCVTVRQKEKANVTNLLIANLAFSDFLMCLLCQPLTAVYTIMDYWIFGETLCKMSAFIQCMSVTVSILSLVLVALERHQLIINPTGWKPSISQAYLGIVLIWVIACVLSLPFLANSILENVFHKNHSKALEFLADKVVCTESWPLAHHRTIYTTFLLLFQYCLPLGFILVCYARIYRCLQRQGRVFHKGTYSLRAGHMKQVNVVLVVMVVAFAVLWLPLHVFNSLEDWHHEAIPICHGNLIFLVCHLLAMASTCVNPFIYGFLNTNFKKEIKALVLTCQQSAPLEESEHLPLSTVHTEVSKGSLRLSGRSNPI

For the compound `C[C@]1(N[C@@H]2CCCC[C@H]2Nc2ncc(-c3ccc(OC(F)(F)F)cc3)o2)CCCN(c2ccc(O)cc2)C1` [Example 509], under setting [1], the EC50 was determined as 128 nM.

Regarding `COc1ncccc1-c1ccnc(N[C@@H]2CCCC[C@H]2NC2CCCN(c3ccc(-c4nnc(C)o4)cc3)C2)c1` (some centres unmarked) [Example 372], under setting [1], the EC50 is 59 nM.

As for `N#Cc1ccc(N2C[C@@H]3C[C@H](N[C@@H]4CCCC[C@H]4Nc4ncc(-c5cccc(C(N)=O)c5)o4)[C@H]2C3)cn1` [Example 303], the EC50 under setting [2] is 221 nM.

For the compound `N#Cc1ccc(N2C[C@@H]3CC(N[C@@H]4CCCC[C@H]4Nc4ncc(-c5ccc(OC(F)(F)F)cc5)o4)[C@H]2C3)cc1` (stereo partly drawn) [Example 95, 4-((1R,4R)-6-((1R,2R)-2-(5-(4-(Trifluoromethoxy)phenyl)oxazol-2-ylamino)cyclohexylamino)-2-azabicyclo[2.2.1]heptan-2-yl)benzonitrile], under setting [3], the EC50 was 10 nM.

As for `CC(C)(O)c1cccc(-c2ccnc(N[C@@H]3CCCC[C@H]3NC3CCCN(c4ccc(C#N)nc4)C3)c2)c1` (some centres unmarked) [Example 314], under setting [2], the EC50 turned out to be 67 nM.

As for `O=C(NC1CC1)c1cccc(-c2cnc(N[C@@H]3CCCC[C@H]3N[C@H]3CCCN(c4ccc(C(F)(F)F)nc4)C3)o2)c1` [Example 99, N-cyclopropyl-(3-(2-((1R,2R)-2((S)-1-(6-trifluoromethyl)pyridin-3yl)piperidin-3-ylamino)cyclohexylamino)oxazol-5-yl)benzamide], the EC50 under setting [3] came to 0.8 nM.

Regarding `Cc1nc2ccc(N3CCC[C@H](N[C@@H]4CCCC[C@H]4Nc4ncc(-c5cc(F)c(F)c(F)c5)o4)C3)cn2n1` [Example 498], under setting [1], the EC50 turned out to be 63 nM.

Regarding `FC(F)(F)Oc1ccc(-c2cnc(N[C@@H]3CCCC[C@H]3N[C@H]3CCCN(c4ccc(I)cc4)C3)o2)cc1` [Example 93, (1R,2R)—N1-((S)-1-(4-Iodophenyl)piperidin-3-yl)-N2-(5-(4-(trifluoromethoxy)phenyl)oxazol-2-yl)cyclohexane-1,2-diamine bis-trifluoroacetate], the EC50 under setting [3] worked out at 33 nM.

Regarding `CC(C)CNC(=O)c1cccc(-c2ccnc(N[C@@H]3CCCC[C@H]3N[C@H]3CCCN(c4ccc(C(F)(F)F)cc4)C3)c2)c1` [Example 148], the EC50 under setting [4] worked out at 205 nM.

Turning to `Fc1cccc(-c2cnc(N[C@@H]3CCCC[C@H]3N[C@H]3CCCN(c4ccc(C(F)(F)F)cc4)C3)o2)c1` [Example 76, (1R,2R)—N1-(5-(3-Fluorophenyl)oxazol-2-yl)-N2-((S)-1-(4-(trifluoromethyl)phenyl)piperidin-3-yl)cyclohexane-1,2-diamine], under setting [3], the concentration giving a half-maximal response (EC50) was found to be 21 nM.

Consider `O=[N+]([O-])c1ccc(N2CCC[C@H](N[C@@H]3CCCC[C@H]3Nc3ncc(-c4ccc(F)c(F)c4)o3)C2)cc1` [Example 10, (1R,2R)—N1-(5-(3,4-Difluorophenyl)oxazol-2-yl)-N2-((S)-1-(4-nitrophenyl)piperidin-3-yl)cyclohexane-1,2-diamine], for which, under setting [3], the EC50 turned out to be 26 nM.

On to `N#Cc1ccc(N2CCC[C@H](N[C@@H]3CCCC[C@H]3Nc3cc(-c4ccccc4)ccn3)C2)cc1` [Example 53, 4-((S)-3-((1R,2R)-2-(4-Phenylpyridin-2-ylamino)cyclohexylamino)piperidin-1-yl)benzonitrile bis-trifluoroacetate], for which, under setting [3], the concentration for a half-maximal effect (EC50) was 95 nM.

For the compound `CC(=O)NCc1cccc(-c2ccnc(N[C@@H]3CCCC[C@H]3N[C@H]3CCCN(c4ccc(C#N)cc4)C3)c2)c1` [Example 244], under setting [5], the half-maximal effective concentration (EC50) is 7 nM.

Regarding `CCNCc1cccc(-c2ccnc(N[C@@H]3CCCC[C@H]3N[C@H]3CCCN(c4ccc(C(F)(F)F)cc4)C3)c2)c1` [Example 142], under setting [4], the EC50 was found to be 58 nM.

Regarding `COC(=O)Nc1cccc(-c2ccnc(N[C@@H]3CCCC[C@H]3N[C@H]3CCCN(c4cnc(C(F)(F)F)nc4)C3)c2)c1` [Example 413], under setting [1], the EC50 was 6 nM.

As for `FC(F)(F)Oc1cccc(-c2cnc(N[C@@H]3CCCC[C@H]3N[C@H]3CCCN(c4cnc(C(F)(F)F)nc4)C3)o2)c1` [Example 404], under setting [1], the EC50 turned out to be 954 nM.

`COC(=O)Nc1cccc(-c2cnc(N[C@@H]3CCCC[C@H]3N[C@H]3CCCN(c4ccc(-c5noc(C)n5)nc4)C3)o2)c1` [Example 382]: under setting [6], the EC50 came to 1 nM.

Turning to `O=[N+]([O-])c1ccc(N2CCC[C@H](N[C@@H]3CCCC[C@H]3Nc3ncc(-c4ccccc4)s3)C2)cc1` [Example 26], the EC50 under setting [3] stood at 8 nM.

Regarding `COC(=O)Nc1cccc(-c2ccnc(N[C@@H]3CCCC[C@H]3N[C@H]3CCCN(c4cnc(-c5noc(C)n5)nc4)C3)c2)c1` [Example 465], the EC50 under setting [1] turned out to be 0.02 nM.

Consider `Cc1nc(-c2ccc(N3CCC[C@H](N[C@@H]4CCCC[C@H]4Nc4ncc(-c5ccc(OC(F)(F)F)cc5)o4)C3)cn2)no1` [Example 394], for which the EC50 under setting [6] is 427 nM.

As to `COC(=O)c1cccc(-c2cnc(N[C@@H]3CCCC[C@H]3N[C@H]3CCCN(c4ccc(C(F)(F)F)cn4)C3)o2)c1` [Example 330], where the note is “TABLE 5, R2 is Pyridinyl-CF3, read-out: hY4 CAMP EC50”, the 50% effective concentration (EC50) came to 166 nM.

As to `N#Cc1ccc(N2CCC[C@H](N[C@@H]3CCCC[C@H]3Nc3cc(Cc4ccn[nH]4)ccn3)C2)cc1` [Example 214], the EC50 under setting [5] amounted to 964 nM.

Consider `O=[N+]([O-])c1ccc(N2CCC[C@H](N[C@@H]3CCCC[C@H]3Nc3ncc(-c4ccc(F)cc4)o3)C2)cc1` [Example 18, (1R,2R)—N1-(5-(4-Fluorophenyl)oxazol-2-yl)-N2-((S)-1-(4-nitrophenyl)piperidin-3-yl)cyclohexane-1,2-diamine], for which, under setting [3], the EC50 amounted to 7 nM.

As for `Cc1nnc(-c2ccc(N3CCCC(N[C@@H]4CCCC[C@H]4Nc4cc(-c5ccncc5)ccn4)C3)cc2)o1` (some centres unmarked) [Example 369], under setting [1], the EC50 stood at 5 nM.

On to `OC1(c2cccc(-c3cnc(N[C@@H]4CCCC[C@H]4N[C@H]4CCCN(c5ccc(C(F)(F)F)cc5)C4)o3)c2)CC1` [Example 154], for which the EC50 under setting [4] was 36 nM.

For `N#Cc1cnc(N2C[C@@H]3C[C@H](N[C@@H]4CCCC[C@H]4Nc4ncc(-c5ccc(OC(F)(F)F)cc5)o4)[C@H]2C3)nc1` [Example 440], the EC50 under setting [1] turned out to be 15 nM.

Turning to `N#Cc1ccc(N2CCC[C@H](N[C@@H]3CCCC[C@H]3Nc3cc(-n4cccc4)ccn3)C2)cc1` [Example 280], the EC50 under setting [5] came to 43 nM.

In the case of `CNC(=O)c1cccc(-c2cnc(N[C@@H]3CCCC[C@H]3N[C@H]3CCCN(c4cnc(C(F)(F)F)cn4)C3)o2)c1` [Example 429], the EC50 under setting [1] was determined as 2 nM.

With `CC(C)(C)OC(=O)/C=C\c1ccnc(N[C@@H]2CCCC[C@H]2N[C@H]2CCCN(c3ccc(C#N)cc3)C2)c1` [Example 108, (Z)-tert-butyl 3-(2-(((1R,2R)-2-(((S)-1-(4-cyanophenyl)piperidin-3-yl)amino)cyclohexyl)amino)pyridin-4-yl)acrylate], under setting [3], the EC50 amounted to 21 nM.

In the case of `O=C(Nc1cccc(-c2cnc(N[C@@H]3CCCC[C@H]3N[C@H]3CCCN(c4ccc5ncnn5c4)C3)o2)c1)C1CC1` [Example 487], the EC50 under setting [1] was determined as 16 nM.

For the compound `Cn1cc(-c2ccnc(N[C@@H]3CCCC[C@H]3N[C@H]3CCCN(c4ccc(C(F)(F)F)cc4)C3)c2)cn1` [Example 188], the EC50 under setting [4] is 1040 nM.

For `CS(=O)(=O)Nc1cccc(-c2ccnc(N[C@@H]3CCCC[C@H]3N[C@H]3CCCN(c4cnc(C(F)(F)F)nc4)C3)c2)c1` [Example 415], the half-maximal effective concentration (EC50) under setting [1] turned out to be 19 nM.

`CC(C)(C)NC(=O)c1cccc(-c2ccnc(N[C@@H]3CCCC[C@H]3N[C@H]3CCCN(c4ccc(C(F)(F)F)cc4)C3)c2)c1` [Example 128]: under setting [4], the concentration giving a half-maximal response (EC50) stood at 227 nM.

As to `Fc1ccccc1-c1cnc(N[C@@H]2CCCC[C@H]2N[C@H]2CCCN(c3cnc(C(F)(F)F)nc3)C2)o1` [Example 402], the EC50 under setting [1] came out at 161 nM.

In the case of `NC(=O)c1cccc(-c2cnc(N[C@@H]3CCCC[C@H]3N[C@H]3CCCN(c4cnc(C(F)(F)F)cn4)C3)o2)c1` [Example 475], under setting [1], the EC50 turned out to be 8 nM.

For the compound `N#Cc1cccc(-c2cnc(N[C@@H]3CCCC[C@H]3N[C@H]3CCCN(c4ccc(C(F)(F)F)cc4)C3)o2)c1` [Example 160], the EC50 under setting [4] is 548 nM.

Regarding `OCc1cccc(-c2ccnc(N[C@@H]3CCCC[C@H]3N[C@H]3CCCN(c4ccc(C(F)(F)F)cc4)C3)c2)c1` [Example 129], the EC50 under setting [4] came out at 41 nM.

With `N#Cc1cnc(N2C[C@@H]3C[C@H](N[C@@H]4CCCC[C@H]4Nc4cc(-c5cccc(C(N)=O)c5)ccn4)[C@H]2C3)nc1` [Example 442], under setting [1], the EC50 is 228 nM.

Consider `Cc1nnc(-c2ccc(N3CCC[C@H](N[C@@H]4CCCC[C@H]4Nc4ncc(-c5ccc(OC(F)(F)F)cc5)o4)C3)cc2)o1` [Example 85, (1R,2R)—N1-((S)-1-(4-(5-Methyl-1,3,4-oxadiazol-2-yl)phenyl)piperidin-3-yl)-N2-(5-(4-(trifluoromethoxy)phenyl)oxazol-2-yl)cyclohexane-1,2-diamine], for which, under setting [3], the EC50 came out at 145 nM.

Consider `CCNC(=O)Nc1cccc(-c2cnc(N[C@@H]3CCCC[C@H]3N[C@H]3CCCN(c4cnc(C(F)(F)F)nc4)C3)o2)c1` [Example 417], for which the concentration for a half-maximal effect (EC50) under setting [1] is 6 nM.

As to `CNC(=O)Nc1cccc(-c2cnc(N[C@@H]3CCCC[C@H]3N[C@H]3CCCN(c4cnc(C(F)(F)F)nc4)C3)o2)c1` [Example 428], the EC50 under setting [1] was found to be 4 nM.
